Source: patent US8124633B2, “Hydroxymethyl ether hydroisoindoline tachykinin receptor antagonists” (Merck Sharp & Dohme Corp., priority 2007, dated 2012)

Target: T1, human neurokinin-1 receptor (NK1R) (Homo sapiens, UniProt P25103)
T1 construct: the cDNA for the human NK1R was cloned into the expression vector pCDM9; expressed in transfected cells
Assay: Binding assay of human NK1R expressed in COS or CHO cells (125I-substance P competition)
Details: 125I-substance P binding to human NK1R expressed in COS or CHO cells
Procedure: Receptor Expression in COS: To express the cloned human neurokinin-1 receptor (NK1R) transiently in COS, the cDNA for the human NK1R was cloned into the expression vector pCDM9 which was derived from pCDM8 (INVITROGEN) by inserting the ampicillin resistance gene (nucleotide 1973 to 2964 from BLUESCRIPT SK+) into the Sac II site. Transfection of 20 ug of the plasmid DNA into 10 million COS cells was achieved by electroporation in 800 ul of transfection buffer (135 mM NaCl, 1.2 mM CaCl2, 1.2 mM MgCl2, 2.4 mM K2HPO4, 0.6 mM KH2PO4, 10 mM glucose, 10 mM HEPES pH 7.4) at 260 V and 950 uF using the IBI GENEZAPPER (1131, New Haven, Conn.). The cells were incubated in 10% fetal calf serum, 2 mM glutamine, 100 U/ml penicillin-streptomycin, and 90% DMEM media (GIBCO, Grand Island, N.Y.) in 5% CO2 at 37° C. for three days before the binding assay.
Stable Expression in CHO: To establish a stable cell line expressing the cloned human NK1R, the cDNA was subcloned into the vector pRcCMV (INVITROGEN). Transfection of 20 ug of the plasmid DNA into CHO cells was achieved by electroporation in 800 ul of transfection buffer supplemented with 0.625 mg/ml Herring sperm DNA at 300 V and 950 uF using the IBI GENEZAPPER (IBI). The transfected cells were incubated in CHO media [10% fetal calf serum, 100 U/ml penicillin-streptomycin, 2 mM glutamine, 1/500 hypoxanthine-thymidine (ATCC), 90% IMDM media (JRH BIOSCIENCES, Lenexa, Kans.), 0.7 mg/ml G418 (GIBCO)] in 5% CO2 at 37° C. until colonies were visible. Each colony was separated and propagated. The cell clone with the highest number of human NK1R was selected for subsequent applications such as drug screening.
Assay Protocol using COS or CHO: The binding assay of human NK1R expressed in either COS or CHO cells is based on the use of ^125I-substance P (^125I-SP, from DU PONT, Boston, Mass.) as a radioactively labeled ligand which competes with unlabeled substance P or any other ligand for binding to the human NK1R. Monolayer cell cultures of COS or CHO were dissociated by the non-enzymatic solution (SPECIALTY MEDIA, Lavallette, N.J.) and resuspended in appropriate volume of the binding buffer (50 mM Tris pH 7.5, 5 mM MnCl2, 150 mM NaCl, 0.04 mg/ml bacitracin, 0.004 mg/ml leupeptin, 0.2 mg/ml BSA, 0.01 mM phosphoramidon) such that 200 ul of the cell suspension would give rise to about 10,000 cpm of specific ^125I-SP binding (approximately 50,000 to 200,000 cells). In the binding assay, 200 ul of cells were added to a tube containing 20 ul of 1.5 to 2.5 nM of ^125I-SP and 20 ul of unlabeled substance P or any other test compound. The tubes were incubated at 4° C. or at room temperature for 1 hour with gentle shaking. The bound radioactivity was separated from unbound radioactivity by GF/C filter (BRANDEL, Gaithersburg, Md.) which was pre-wetted with 0.1% polyethylenimine. The filter was washed with 3 ml of wash buffer (50 mM Tris pH 7.5, 5 mM MnCl2, 150 mM NaCl) three times and its radioactivity was determined by gamma counter. The activation of phospholipase C by NK1R may also be measured in CHO cells expressing the human NK1R by determining the accumulation of inositol monophosphate which is a degradation product of IP3. CHO cells are seeded in 12-well plate at 250,000 cells per well. After incubating in CHO media for 4 days, cells are loaded with 0.025 uCi/ml of 3H-myoinositol by overnight incubation. The extracellular radioactivity is removed by washing with phosphate buffered saline. LiCl is added to the well at final concentration of […] with or without the test compound, and incubation is continued at 37° C. for […]. Substance P is added to the well at final concentration of 0.3 nM to activate the human NK1R. After 30 min of incubation at 37° C., the media is removed and 0.1 N HCl is added. Each well is sonicated at 4° C. and extracted with CHCl3/methanol (1:1). The aqueous phase is applied to a 1 ml Dowex AG 1×8 ion exchange column. […]

T1 sequence (P25103 whole entry): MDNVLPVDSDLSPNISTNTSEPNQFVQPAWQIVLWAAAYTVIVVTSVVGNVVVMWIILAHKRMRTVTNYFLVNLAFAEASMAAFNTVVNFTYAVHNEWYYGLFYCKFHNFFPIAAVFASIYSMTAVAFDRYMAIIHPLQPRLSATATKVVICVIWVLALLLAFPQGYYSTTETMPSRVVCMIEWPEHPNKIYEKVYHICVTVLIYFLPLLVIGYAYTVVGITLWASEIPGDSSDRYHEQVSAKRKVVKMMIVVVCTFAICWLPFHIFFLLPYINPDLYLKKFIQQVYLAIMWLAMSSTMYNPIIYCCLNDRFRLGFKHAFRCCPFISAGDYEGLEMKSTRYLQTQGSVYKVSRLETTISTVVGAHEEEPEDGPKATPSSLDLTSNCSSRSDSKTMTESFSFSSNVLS

Point of comparison: `Cc1ccccc1[C@H]1[C@@H]2CN(C3=CC(=O)CC3)C[C@H]2CC[C@@H]1O[C@H](CO)c1cc(C(F)(F)F)cc(C(F)(F)F)c1` [Example 3, 3-[(3aR,4R,5S,7aS)-5-{(1S)-1-[3,5-bis(trifluoromethyl)phenyl]-2-hydroxyethoxy}-4-(2-methylphenyl)octahydro-2H-isoindol-2-yl]cyclopent-2-en-1-one], IC50 0.06 nM. Against it:
- Cc1ccccc1[C@H]1[C@@H]2CN(C(=O)C(C)(C)C)C[C@H]2CC[C@@H]1O[C@@H](CO)c1cc(C(F)(F)F)cc(C(F)(F)F)c1 [Example 24] — 750-fold higher, 45 nM
- COC[C@@H](O[C@H]1CC[C@@H]2CN(C(=O)N(C)C)C[C@H]2[C@@H]1c1ccccc1C)c1cc(C(F)(F)F)cc(C(F)(F)F)c1 [Example 14] — 7.7-fold higher, 0.46 nM
- O=C1COC(N2C[C@H]3CC[C@H](O[C@H](CO)c4cc(C(F)(F)F)cc(C(F)(F)F)c4)[C@@H](c4ccc(F)cc4)[C@@H]3C2)=N1 [Example 8] — 2-fold lower, 0.03 nM
- Cc1ccccc1[C@H]1[C@@H]2CN(C(=O)C(C)(C)C)C[C@H]2CC[C@@H]1O[C@H](CO)c1cc(C(F)(F)F)cc(C(F)(F)F)c1 [Example 12] — within 1.5-fold, 0.07 nM
- Cc1ccccc1[C@H]1[C@@H]2CN(C(=O)N(C)C)C[C@H]2CC[C@@H]1O[C@H](CO)c1cc(C(F)(F)F)cc(C(F)(F)F)c1 [Example 6, (3aR,4R,5S,7aS)-5-{(1S)-1-[3,5-bis(trifluoromethyl)phenyl]-2-hydroxyethoxy}-N,N-dimethyl-4-(2-methylphenyl)octahydro-2H-isoindole-2-carboxamide] — 2-fold lower, 0.03 nM
- Cc1ccccc1[C@H]1[C@@H]2CN(C(=O)C(C)C)C[C@H]2CC[C@@H]1O[C@H](CO)c1cc(C(F)(F)F)cc(C(F)(F)F)c1 [Example 7, (2S)-2-[3,5-bis(trifluoromethyl)phenyl]-2-{[(3aR,4R,5S,7aS)-2-isobutyryl-4-(2-methylphenyl)octahydro-1H-isoindol-5-yl]oxy}ethanol] — within 1.5-fold, 0.08 nM
- Cc1ccccc1[C@H]1[C@@H]2CN(C3=NC(=O)CO3)C[C@H]2CC[C@@H]1O[C@H](CO)c1cc(C(F)(F)F)cc(C(F)(F)F)c1 [Example 5, 2-[(3aR,4R,5S,7aS)-5-{(1S)-1-[3,5-bis(trifluoromethyl)phenyl]-2-hydroxyethoxy}-4-(2-methylphenyl)octahydro-2H-isoindol-2-yl]-1,3-oxazol-4(5H)-one] — the same, 0.06 nM
- Cc1ccccc1[C@H]1[C@@H]2CN(C(=O)C3CC3)C[C@H]2CC[C@@H]1O[C@H](CO)c1cc(C(F)(F)F)cc(C(F)(F)F)c1 [Example 13] — the same, 0.06 nM
- O=C1C=C(N2C[C@H]3CC[C@H](O[C@@H](CO)c4cc(C(F)(F)F)cc(C(F)(F)F)c4)[C@@H](c4ccc(F)cc4)[C@@H]3C2)CC1 [Example 21] — 920-fold higher, 55 nM
- COC[C@@H](O[C@H]1CC[C@@H]2CN(C3=CC(=O)CC3)C[C@H]2[C@@H]1c1ccccc1C)c1cc(C(F)(F)F)cc(C(F)(F)F)c1 [Example 4, 3-[(3aR,4R,5S,7aS)-5-{(1S)-1-[3,5-bis(trifluoromethyl)phenyl]-2-methoxyethoxy}-4-(2-methylphenyl)octahydro-2H-isoindol-2-yl]cyclopent-2-en-1-one] — 1.7-fold higher, 0.1 nM
- OC[C@@H](O[C@H]1CC[C@@H]2CNC[C@H]2[C@@H]1c1ccc(F)cc1)c1cc(C(F)(F)F)cc(C(F)(F)F)c1 [Example 16] — 5.8-fold higher, 0.35 nM
- Cc1ccccc1[C@H]1[C@@H]2CNC[C@H]2CC[C@@H]1O[C@@H](CO)c1cc(C(F)(F)F)cc(C(F)(F)F)c1 [Example 22] — 37-fold higher, 2.2 nM
- Cc1ccccc1[C@H]1[C@@H]2CNC[C@H]2CC[C@@H]1O[C@H](CO)c1cc(C(F)(F)F)cc(C(F)(F)F)c1 [Example 2, (2S)-2-[3,5-bis(trifluoromethyl)phenyl]-2-{[(3aR,4R,5S,7aS)-4-(2-methylphenyl)octahydro-1H-isoindol-5-yl]oxy}ethanol] — 1.5-fold lower, 0.04 nM
- Cc1cc(F)ccc1[C@H]1[C@@H]2CN(C3=NC(=O)CO3)C[C@H]2CC[C@@H]1O[C@H](CO)c1cc(C(F)(F)F)cc(C(F)(F)F)c1 [Example 10] — 2-fold lower, 0.03 nM
- Cc1cc(F)ccc1[C@H]1[C@@H]2CN(C3=CC(=O)CC3)C[C@H]2CC[C@@H]1O[C@H](CO)c1cc(C(F)(F)F)cc(C(F)(F)F)c1 [Example 11] — 2-fold lower, 0.03 nM
- O=C1C=C(N2C[C@H]3CC[C@H](O[C@H](CO)c4cc(C(F)(F)F)cc(C(F)(F)F)c4)[C@@H](c4ccc(F)cc4)[C@@H]3C2)CC1 [Example 9] — 1.5-fold higher, 0.09 nM

Same assay, conditions: at 0.1 nM; 125I-substance P binding to human NK1R

In the case of `OC[C@H](O[C@H]1CC[C@@H]2CNC[C@H]2[C@@H]1c1ccc(F)cc1)c1cc(C(F)(F)F)cc(C(F)(F)F)c1` [Example 27], the inhibition at 0.0001 µM is reported as 47%.
